Structures can show the parent of a compound that is named as a salt.
Tested on: 4 PI3K isoforms (Human recombinant GST-PI3K)
Experiment: PI3K scintillation proximity assay, best IC50 obtained with the four isoforms (alpha, beta, delta, gamma)
Format: biochemical
Details: best IC50 obtained with the four isoforms of PI3K; read-out: Best potency measured on the 4 PI3K isoforms

Row | SMILES | IC50 [µM]
1 | O=C(c1nn(-c2cccc(CN3CCS(=O)(=O)CC3)c2)c2c1CS(=O)(=O)c1ccccc1-2)N1CCOCC1 [Example 247, 1-{3-[(1,1-Dioxidothiomorpholin-4-yl)methyl]phenyl}-3-(morpholin-4-ylcarbonyl)-1,4-dihydrothiochromeno[4,3-c]pyrazole 5,5-dioxide] | 0.639
2 | Cc1nnc(-c2cccc(-n3nc(C(=O)N4CCOCC4)c4c3-c3ccccc3S(=O)(=O)C4)c2)o1 [Example 182, 1-[3-(5-Methyl-1,3,4-oxadiazol-2-yl)phenyl]-3-(morpholin-4-ylcarbonyl)-1,4-dihydrothiochromeno[4,3-c]pyrazole 5,5-dioxide] | 1.2
3 | O=C(c1nn(C2CCCC(C(=O)N3CCCCC3)C2)c2c1CS(=O)(=O)c1ccccc1-2)N1CCOCC1 (centres unmarked) [Example 193, 3-(Morpholin-4-ylcarbonyl)-1-[3-(piperidin-1-ylcarbonyl)cyclohexyl]-1,4-dihydrothiochromeno[4,3-c]pyrazole 5,5-dioxide] | 0.362
4 | CS(=O)(=O)c1ccc(-n2nc(C(=O)N3CCOCC3)c3c2-c2ccccc2S(=O)(=O)C3)cc1 [Example 130, 1-[4-(Methylsulfonyl)phenyl]-3-(morpholin-4-ylcarbonyl)-1,4-dihydrothiochromeno[4,3-c]pyrazole 5,5-dioxide] | 4.52
5 | COc1ccc(-n2nc(C(=O)N3CCOCC3)c3c2-c2ccccc2S(=O)(=O)C3)cn1 [Example 131, 1-(6-Methoxypyridin-3-yl)-3-(morpholin-4-ylcarbonyl)-1,4-dihydrothiochromeno[4,3-c]pyrazole 5,5-dioxide] | 2.2
6 | O=C(c1nn(-c2ccc3nn(Cc4ccccc4)cc3c2)c2c1CS(=O)(=O)c1ccccc1-2)N1CCOCC1 [Example 204, 1-(2-Benzyl-2H-indazol-5-yl)-3-(morpholin-4-ylcarbonyl)-1,4-dihydrothiochromeno[4,3-c]pyrazole 5,5-dioxide] | 2.08
7 | COCCNCCN1CCC[C@H](n2nc(C(=O)N3CCOCC3)c3c2-c2ccccc2S(=O)(=O)C3)C1 (stereo in doubt) [Example 445, 2-methoxy-N-(2-{3-[3-(morpholin-4-ylcarbonyl)-5,5-dioxidothiochromeno[4,3-c]pyrazol-1(4H)-yl]piperidin-1-yl}ethyl)ethanamine] | 0.034
8 | O=C(c1cccc(-n2nc(C(=O)N3CCOCC3)c3c2-c2ccccc2S(=O)(=O)C3)c1)N1CCCC(O)C1 (centres unmarked) [Example 144, 1-{3-[3-(Morpholin-4-ylcarbonyl)-5,5-dioxidothiochromeno[4,3-c]pyrazol-1 (4H)-yl]benzoyl}piperidin-3-ol] | 0.348
9 | O=C(c1nn(-c2ccccc2F)c2c1CS(=O)(=O)c1ccccc1-2)N1CCOCC1 [Example 21, 1-(2-fluorophenyl)-3-(morpholin-4-ylcarbonyl)-1,4-dihydrothiochromeno[4,3-c]pyrazole 5,5-dioxide] | 2
10 | O=C(c1nn(-c2cccc(CN3CCC(F)(F)CC3)c2)c2c1CS(=O)(=O)c1ccccc1-2)N1CCOCC1 [Example 260, 1-{3-[(4,4-Difluoropiperidin-1-yl)methyl]phenyl}-3-(morpholin-4-ylcarbonyl)-1,4-dihydrothiochromeno[4,3-c]pyrazole 5,5-dioxide] | 0.56
11 | O=C(c1nn(-c2cccc(CN3CCC(O)CC3)c2)c2c1CS(=O)(=O)c1ccccc1-2)N1CCOCC1 [Example 237, 1-{3-[3-(Morpholin-4-ylcarbonyl)-5,5-dioxidothiochromeno[4,3-c]pyrazol-1 (4H)-yl]benzyl}piperidin-4-ol] | 0.573
12 | CN1CCN(C(=O)c2ccc3c(c2)-c2c(c(C(=O)N4CCOCC4)nn2-c2ccccc2)CS3(=O)=O)CC1 [Example 114, 8-[(4-Methylpiperazin-1-yl)carbonyl]-3-(morpholin-4-ylcarbonyl)-1-phenyl-1,4-dihydrothiochromeno[4,3-c]pyrazole 5,5-dioxide] | 4.28
13 | COCCNc1ccc2c(c1)-c1c(c(C(=O)N3CCOCC3)nn1-c1ccccc1)CS2(=O)=O [Example 156, N-(2-Methoxyethyl)-3-(morpholin-4-ylcarbonyl)-1-phenyl-1,4-dihydrothiochromeno[4,3-c]pyrazol-8-amine 5,5-dioxide] | 0.902
14 | O=C(c1ccc2c(c1)-c1c(c(C(=O)N3CCOCC3)nn1-c1ccccc1)CS2(=O)=O)N1CCOCC1 [Example 116, 3,8-Bis(morpholin-4-ylcarbonyl)-1-phenyl-1,4-dihydrothiochromeno[4,3-c]pyrazole 5,5-dioxide] | 3.03
15 | COCCN1CCC[C@H](n2nc(C(=O)N3CCOCC3)c3c2-c2cccc(C)c2S(=O)(=O)C3)C1 (single isomer, unassigned) [Example 467, 1-[1-(2-methoxyethyl)piperidin-3-yl]-6-methyl-3-(morpholin-4-ylcarbonyl)-1,4-dihydrothiochromeno[4,3-c]pyrazole 5,5-dioxide] | 0.096
16 | CS(=O)(=O)C1CCN(Cc2cccc(-n3nc(C(=O)N4CCOCC4)c4c3-c3ccccc3S(=O)(=O)C4)c2)C1 (centres unmarked) [Example 243, 1-(3-{[3-(Methylsulfonyl)pyrrolidin-1-yl]methyl}phenyl)-3-(morpholin-4-ylcarbonyl)-1,4-dihydrothiochromeno[4,3-c]pyrazole 5,5-dioxide] | 0.464

Row | SMILES | IC50 [µM]
17 | COCCOCCN1CCCC(n2nc(C(=O)N3CCOCC3)c3c2-c2ccccc2S(=O)(=O)C3)C1 (centres unmarked) [Example 225, 1-{1-[2-(2-Methoxyethoxy)ethyl]piperidin-3-yl}-3-(morpholin-4-ylcarbonyl)-1,4-dihydrothiochromeno[4,3-c]pyrazole 5,5-dioxide] | 0.635
18 | CN(C)CC(C)(C)c1ccc(-n2nc(C(=O)N3CCOCC3)c3c2-c2ccccc2S(=O)(=O)C3)cc1 [Example 458, N,N,2-Trimethyl-2-{4-[3-(morpholin-4-ylcarbonyl)-5,5-dioxidothiochromeno[4,3-c]pyrazol-1(4H)-yl]phenyl}propan-1-amine hydrochloride] | 0.159
19 | O=C(c1nn(-c2ccccc2)c2c1CS(=O)(=O)c1ccccc1-2)N1CCCOCC1 [Example 334, 3-(1,4-Oxazepan-4-ylcarbonyl)-1-phenyl-1,4-dihydrothiochromeno[4,3-c]pyrazole 5,5-dioxide] | 9.07
20 | CC1CN(Cc2ccc(-n3nc(C(=O)N4CCOCC4)c4c3-c3ccccc3S(=O)(=O)C4)cc2)CCO1 (centres unmarked) [Example 432, 1-{4-[(2-Methylmorpholin-4-yl)methyl]phenyl}-3-(morpholin-4-ylcarbonyl)-1,4-dihydrothiochromeno[4,3-c]pyrazole 5,5-dioxide] | 0.105
21 | O=C(c1nn(-c2ccccn2)c2c1CS(=O)(=O)c1ccccc1-2)N1CCOCC1 [Example 11, 3-(morpholin-4-ylcarbonyl)-1-pyridin-2-yl-1,4-dihydrothiochromeno[4,3-c]pyrazole 5,5-dioxide] | 1.59
22 | COCCN1CCC[C@H](n2nc(C(=O)N3CCOCC3)c3c2-c2ccc(OC)cc2S(=O)(=O)C3)C1 (single isomer, unassigned) [Example 394, 7-methoxy-1-[1-(2-methoxyethyl)piperidin-3-yl]-3-(morpholin-4-ylcarbonyl)-1,4-dihydrothiochromeno[4,3-c]pyrazole 5,5-dioxide] | 0.093
23 | CN(C)CCCn1nc(C(=O)N2CCOCC2)c2c1-c1ccccc1S(=O)(=O)C2 [Example 69, N,N-Dimethyl-3-[3-(morpholin-4-ylcarbonyl)-5,5-dioxidothiochromeno[4,3-c]pyrazol-1(4H)-yl]propan-1-amine] | 3.11
24 | O=C(c1nn([C@H]2CCCN(c3ccncc3)C2)c2c1CS(=O)(=O)c1ccccc1-2)N1CCOCC1 (stereo in doubt) [Example 468, 3-(morpholin-4-ylcarbonyl)-1-[1-pyridin-4-ylpiperidin-3-yl]-1,4-dihydrothiochromeno[4,3-c]pyrazole 5,5-dioxide] | 0.133
25 | O=C(c1nn(C2CN(CCC3CCOCC3)C2)c2c1CS(=O)(=O)c1ccccc1-2)N1CCOCC1 [Example 405, 3-(Morpholin-4-ylcarbonyl)-1-{1-[2-(tetrahydro-2H-pyran-4-yl)ethyl]azetidin-3-yl}-1,4-dihydrothiochromeno[4,3-c]pyrazole 5,5-dioxide] | 0.095
26 | Nc1ccc2c(c1)S(=O)(=O)Cc1c(C(=O)N3CCOCC3)nn(-c3ccccc3)c1-2 [Example 165, 3-(Morpholin-4-ylcarbonyl)-1-phenyl-1,4-dihydrothiochromeno[4,3-c]pyrazol-7-amine 5,5-dioxide] | 1.13
27 | COC1CN(CCN2CCC[C@H](n3nc(C(=O)N4CCOCC4)c4c3-c3ccccc3S(=O)(=O)C4)C2)C1 (stereo in doubt) [Example 446, 1-{1-[2-(3-methoxyazetidin-1-yl)ethyl]piperidin-3-yl}-3-(morpholin-4-ylcarbonyl)-1,4-dihydrothiochromeno[4,3-c]pyrazole 5,5-dioxide] | 0.02
28 | Cc1nnc(-c2cccc(-n3nc(C(=O)N4CCOCC4)c4c3-c3ccccc3S(=O)(=O)C4)c2)s1 [Example 183, 1-[3-(5-Methyl-1,3,4-thiadiazol-2-yl)phenyl]-3-(morpholin-4-ylcarbonyl)-1,4-dihydrothiochromeno[4,3-c]pyrazole 5,5-dioxide] | 0.661
29 | Cc1ccncc1-n1nc(C(=O)N2CCOCC2)c2c1-c1ccccc1S(=O)(=O)C2 [Example 31, 1-(4-methylpyridin-3-yl)-3-(morpholin-4-ylcarbonyl)-1,4-dihydrothiochromeno[4,3-c]pyrazole 5,5-dioxide] | 4.04
30 | Cn1cc(-n2nc(C(=O)N3CCOCC3)c3c2-c2ccsc2S(=O)(=O)C3)ccc1=O [Example 195, 1-Methyl-5-[3-(morpholin-4-ylcarbonyl)-5,5-dioxidothieno[3′,2′:5,6]thiopyrano[4,3-c]pyrazole-1 (4H)-yl]pyridin-2 (1H)-one] | 2.69
31 | O=C(c1nn(C2CCCN(CCN3CC[C@H](F)C3)C2)c2c1CS(=O)(=O)c1ccccc1-2)N1CCOCC1 (single isomer, unassigned) [Example 282] | 0.072

Same assay, conditions: inhibition at 20 μM

Row | SMILES | Best potency measured on the 4 PI3K isoforms, % inh @20 μM [% inh @20 μM]
32 | CC(C)c1ccccc1-n1nc(C(=O)N2CCOCC2)c2c1-c1ccccc1S(=O)(=O)C2 [Example 312, 1-(2-Isopropylphenyl)-3-(morpholin-4-ylcarbonyl)-1,4-dihydrothiochromeno[4,3-c]pyrazole 5,5-dioxide] | 47
